Source: patent US6610689B2, “HIV protease inhibitors based on amino acid derivatives” (priority 2001, dated 2003)
Structures can show the parent of a compound that is named as a salt. Where two headings read alike, the source gives them in different places.

Molecular target: T1, HIV protease (Human immunodeficiency virus type 1 group M subtype B, UniProt P04585)
T1 construct: A third viral enzyme known as protease then cleaves the polyproteins
Assay: Enzymatic Assay for Determining the Inhibition Constant (Ki) of Synthetic Compounds Targeting the HIV Protease (fluorometric FRET assay)
Format: biochemical
How it was run: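 Ki obtained via the Henderson equation from enzyme velocities with and without compound, accounting for substrate concentration and Km. Activity followed by FRET fluorescence from cleavage of a substrate flanked by EDANS donor and DABCYL acceptor.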

[1] = Table 1, compounds of formula I, read-out: Ki (anti-protease activity)

SMILES	Ki [nM]	Ki [1] [nM]
COc1ccc(S(=O)(=O)N(CC(C)C)[C@H](CO)CCCCNC(=O)[C@H](Cc2c[nH]c3ccccc23)NS(=O)(=O)c2ccc(C)cc2)cc1 [Example 149, (2S,2′S) 2-N-Isobutyl-2-N-(4-methoxybenzenesulfonyl)-6-N-[N′α-(4-methylbenzenesulfonyl)-S-tryptophanyl]-2,6-diaminohexanol]	7.5	
COC(=O)[C@H](CCCCNC(=O)[C@H](Cc1c[nH]c2ccccc12)NC(=O)OC(C)(C)C)N(CC1CCCC1)S(=O)(=O)c1ccc(OC)cc1 [Example 150, Nα-Cyclopentylmethyl-Nα-(4-methoxybenzenesulfonyl)-Nε-(N′α-tert-butoxycarbonyl-L-tryptophanyl)-L-lysine Methyl Ester]	> 300	
COc1ccc(S(=O)(=O)N(CC2CCCC2)[C@@H](CCCCNC(=O)[C@H](Cc2c[nH]c3ccccc23)NC(=O)OC(C)(C)C)C(=O)O)cc1 [Example 151, Nα-Cyclopentylnethyl-Nα-(4-methoxybenzenesulfonyl)-Nε-(N′α-tert-butoxycarbonyl-L-tryptophanyl)-L-lysine]	5.3	
COc1ccc(S(=O)(=O)N(CC2CCCC2)[C@H](CO)CCCCNC(=O)[C@@H](N)Cc2c[nH]c3ccccc23)cc1 [Example 152, (2S,2′S) 2-N-Cyclopentylmethyl-2-N-(4-methoxybenzenesulfonyl)-6-N-(S-tryptophanyl)-2,6-diaminohexanol Trifluoroacetic Acid Salt]		12
COc1ccc(S(=O)(=O)N(CC2CCCC2)[C@H](CO)CCCCNC(=O)[C@H](Cc2c[nH]c3ccccc23)NC(=O)OC(C)(C)C)cc1 [Example 153, (2S,2′S) 2-N-Cyclopentylmethyl-2-N-(4-methoxybenzenesulfonyl)-6-N-(N′α-tert-butoxycarbonyl-S-tryptophanyl)-2,6-diaminohexanol]	24	
Cc1ccc(S(=O)(=O)N[C@@H](Cc2ccccc2)C(=O)NCCC[C@@H](C(=O)O)N(CC(C)C)S(=O)(=O)c2ccc(C)cc2)cc1 [Example 154, Nα-Isobutyl-Nα-(4-methylbenzenesulfonyl)-Nε-[N′α-(4-methylbenzenesulfonyl)-L-phenylalanyl]-L-ornithine]	> 300	
Cc1ccc(S(=O)(=O)N(CC(C)C)[C@H](CO)CCCCNC(=O)CN(Cc2ccccc2)c2ccccc2)cc1 [Example 156, (2S) 2-N-Isobutyl-2-N-(4-methylbenzenesulfonyl)-6-N-(N′α-benzyl-N′α-phenylglycyl)-2,6-diaminohexanol]	7.6	
Cc1ccc(S(=O)(=O)N(CC(C)C)[C@H](CO)CCCCNC(=O)CN(Cc2ccccc2)C(=O)c2ccccc2)cc1 [Example 158, (2S) 2-N-Isobutyl-2-N-(4-methylbenzenesulfonyl)-6-N-(N′α-benzoyl-N′α-benzylglycyl)-2,6-diaminohexanol]	95	
Cc1ccc(S(=O)(=O)N(CC(=O)NCCCC[C@@H](CO)N(CC(C)C)S(=O)(=O)c2ccc(C)cc2)Cc2ccccc2)cc1 [Example 159, (2S) 2-N-Isobutyl-2-N-(4-methylbenzenesulfonyl)-6-N-[N′α-benzyl-N′α-(4-methylbenzenesulfonyl)glycyl]-2,6-diaminohexanol]	101	
Cc1ccc(S(=O)(=O)N(CC(C)C)[C@H](CO)CCCCNC(=O)CN(CCc2ccccc2)c2ccccc2)cc1 [Example 160, (2S) 2-N-Isobutyl-2-N-(4-methylbenzenesulfonyl)-6-N-(N′α-phenethyl-N′α-phenylglycyl]-2,6-diaminohexanol]		52
Cc1ccc(S(=O)(=O)N(CC(C)C)[C@H](CO)CCCCNC(=O)[C@H](Cc2c[nH]c3ccccc23)NS(=O)(=O)c2ccc(N)cc2)cc1 [Example 161, (2S,2′S) 2-N-Isobutyl-2-N-(4-methylbenzenesulfonyl)-6-N-[N′α-(4-aminobenzenesulfonyl)-S-tryptophanyl]-2,6-diaminohexanol]	1.4	
COc1ccc(CC(=O)N[C@@H](Cc2ccccc2)C(=O)NCCCC[C@@H](CO)N(CC(C)C)S(=O)(=O)c2ccc(C)cc2)cc1 [Example 162, (2S,2′S) 2-N-Isobutyl-2-N-(4-methylbenzenesulfonyl)-6-N-[N′α-(4-methoxyphenylacetyl)-S-phenylalanyl]-2,6-diaminohexanol]	1.2	
COc1ccc(CC(=O)N[C@@H](Cc2ccccc2)C(=O)NCCCC[C@@H](C(=O)O)N(CC(C)C)S(=O)(=O)c2ccc(N)cc2)cc1 [Example 163, Nα-(4-Aminobenzenesulfonyl)-Nα-isobutyl-Nε-[N′α-(4-methoxyphenylacetyl)-L-phenylalanyl]-L-lysine]	0.27	
COc1ccc(CC(=O)N[C@@H](Cc2c[nH]c3ccccc23)C(=O)NCCCC[C@@H](C(=O)O)N(CC(C)C)S(=O)(=O)c2ccc(C)cc2)cc1 [Example 164, Nα-Isobutyl-Nα-(4-methylbenzenesulfonyl)-Nε-[N′α-(4-methoxyphenylacetyl)-L-tryptophanyl]-L-lysine]	0.32	
COc1ccc(CC(=O)N[C@@H](Cc2c[nH]c3ccccc23)C(=O)NCCCC[C@@H](CO)N(CC(C)C)S(=O)(=O)c2ccc(C)cc2)cc1 [Example 165, (2S,2′S) 2-N-Isobutyl-2-N-(4-methylbenzenesulfonyl)-6-N-[N′α-(4-methoxyphenylacetyl)-S-tryptophanyl]-2,6-diaminohexanol]	1.1	
CC(C)CN([C@H](CO)CCCCNC(=O)[C@H](Cc1c[nH]c2ccccc12)NS(=O)(=O)c1cccs1)S(=O)(=O)c1ccc(N)cc1 [Example 166, (2S,2′S) 2-N-(4-Aminobenzenesulfonyl)-2-N-isobutyl-6-N-[N′α-(2-thiophenesulfonyl)-S-tryptophanyl]-2,6-diaminohexanol]	1	
CC(C)CN([C@H](CO)CCCCNC(=O)[C@H](Cc1c[nH]c2ccccc12)NS(=O)(=O)c1ccccc1)S(=O)(=O)c1ccc(N)cc1 [Example 167, (2S,2′S) 2-N-(4-Aminobenzenesulfonyl)-2-N-isobutyl-6-N-(N′α-benzenesulfonyl-S-tryptophanyl)-2,6-diaminohexanol]	1.5	
CC(=O)N[C@@H](Cc1c[nH]c2ccccc12)C(=O)NCCCC[C@@H](CO)N(CC(C)C)S(=O)(=O)c1ccc(N)cc1 [Example 168, (2S,2′S) 2-N-(4-Aminobenzenesulfonyl)-2-N-isobutyl-6-N-(N′α-acetyl-S-tryptophanyl)-2,6-diaminohexanol]	3.8	
CC(C)CN([C@H](CO)CCCCNC(=O)[C@H](Cc1c[nH]c2ccccc12)NC(=O)C(C)(C)C)S(=O)(=O)c1ccc(N)cc1 [Example 169, (2S,2′S) 2-N-(4-Aminobenzenesulfonyl)-2-N-isobutyl-6-N-(N′α-pivaloyl-S-tryptophanyl)-2,6-diaminohexanol]	1.2	
CC(C)CN([C@H](CO)CCCCNC(=O)[C@H](Cc1c[nH]c2ccccc12)NC(=O)N1CCOCC1)S(=O)(=O)c1ccc(N)cc1 [Example 170, (2S,2′S) 2-N-(4-Aminobenzenesulfonyl)-2-N-isobutyl-6-N-[N′α-(4-morpholinecarbonyl)-S-tryptophanyl]-2,6-diaminohexanol]		1.1
Cc1ccc(S(=O)(=O)N(CC(C)C)[C@H](CO)CCCCNC(=O)[C@H](Cc2c[nH]c3ccccc23)NC(=O)N2CCOCC2)cc1 [Example 171, (2S,2′S) 2-N-Isobutyl-2-N-(4-methylbenzenesulfonyl)-6-N-[N′α-(4-morpholinecarbonyl)-S-tryptophanyl]-2,6-diaminohexanol]	7.9	
COc1ccc(S(=O)(=O)N(CC(C)C)[C@H](CO)CCCCNC(=O)[C@H](Cc2c[nH]c3ccccc23)NC(C)=O)cc1 [Example 172, (2S,2′S) 2-N-Isobutyl-2-N-(4-methoxybenzenesulfonyl)-6-N-(N′α-acetyl-S-tryptophanyl)-2,6-diaminohexanol]	> 300	
COc1ccc(S(=O)(=O)N(CC2CCCC2)[C@H](CO)CCCCNC(=O)[C@H](Cc2c[nH]c3ccccc23)NC(C)=O)cc1 [Example 173, (2S,2′S) 2-N-Cyclopentylmethyl-2-N-(4-methoxybenzenesulfonyl)-6-N-(N′α-acetyl-S-tryptophanyl)-2,6-diaminohexanol]	11	
COc1ccc(CN(CC(=O)NCCCC[C@@H](C(=O)O)N(CC(C)C)S(=O)(=O)c2ccc(C)cc2)c2ccccc2)cc1 [Example 174, Nα-Isobutyl-Nα-(4-methylbenzenesulfonyl)-Nε-[N′α-(4-methoxybenzyl)-N′α-phenylglycyl]-L-lysine]	1.4	
COc1ccc(CN(CC(=O)NCCCC[C@@H](CO)N(CC(C)C)S(=O)(=O)c2ccc(C)cc2)c2ccccc2)cc1 [Example 175, (2S) 2-N-Isobutyl-2-N-(4-methylbenzenesulfonyl)-6-N-[N′α-(4-methoxybenzyl)-N′α-phenylglycyl]-2,6-diaminohexanol]	6.3	
COc1ccc(CN(CC(=O)NCCCC[C@@H](CO)N(CC(C)C)S(=O)(=O)c2ccc(N)cc2)c2ccccc2)cc1 [Example 176, (2S) 2-N-(4-Aminobenzenesulfonyl)-2-N-isobutyl-6-N-[N′α-(4-methoxybenzyl)-N′α-phenylglycyl]-2,6-diaminohexanol]	2.4	
COC(=O)N[C@@H](Cc1ccccc1)C(=O)NCCCC[C@@H](CO)N(CC(C)C)S(=O)(=O)c1ccc(N)cc1 [Example 177, (2S,2′S) 2-N-(4-Aminobenzenesulfonyl)-2-N-isobutyl-6-N-(N′α-methoxycarbonyl-S-phenylalanyl)-2,6-diaminohexanol]	6.6	
COC(=O)N[C@@H](Cc1c[nH]c2ccccc12)C(=O)NCCCC[C@@H](CO)N(CC(C)C)S(=O)(=O)c1ccc(N)cc1 [Example 178, (2S,2′S) 2-N-(4-Aminobenzenesulfonyl)-2-N-isobutyl-6-N-(N′α-methoxycarbonyl-S-tryptophanyl)-2,6-diaminohexanol]	2	
CC(C)CN([C@H](CO)CCCCNC(=O)[C@H](Cc1c[nH]c2ccccc12)NS(=O)(=O)c1ccc([N+](=O)[O-])cc1)S(=O)(=O)c1ccc(N)cc1 [Example 179, (2S,2′S) 2-N-(4-Aminobenzenesulfonyl)-2-N-isobutyl-6-N-[N′α-(4-nitrobenzenesulfonyl)-S-tryptophanyl]-2,6-diaminohexanol]	32	
